# Measurements as given in patent US10220096B2, “Injectable and stable hydrogels with dynamic properties modulated by biocompatible catalysts” (The Board of Trustees of the Leland Stanford Junior …, priority 2016, dated 2019).
# Columns and labels:
# [1] = system: Human Umbilical Vein Endothelial Cells (HUVECs); assay: Catalyst toxicity, MTT cell viability assay; format: cell-based; settings: 2D culture
# Description: Human Umbilical Vein Endothelial Cells (HUVECs) were obtained from Lonza. HUVECs were expanded in growth medium composed of about 10% fetal bovine serum, about 1% penicillin/streptomycin in EBM-2. The medium was changed every about 3 d and the cells were passaged at about 70% confluency. Cells were used at passage 5 or lower for all experiments.
# HUVECs pre-seeded in 96-well plates at about 10^4 cells/well were incubated with catalysts 1 and 2 for about 1 h, about 4 h, about 24 h and about 72 h. Afterwards, the cells were washed with PBS, the cell viability MTT assay was carried out to determine the cell viabilities relative to the control cells incubated with the same volume of PBS.
# [2] = Catalyst diffusion out of hydrogel (UV absorption at about 281 nm); format: physicochemical; settings: about 50 μL hydrogel in about 1 mL PBS
# Description: Long-term stability of hydrogel scaffolds is often desired to provide support for cell adhesion and growth after cell injection. Rapid hydrogel erosion is a challenge for many dynamic and injectable hydrogels. It is proposed that rapid passive diffusion of the dissolved small molecule catalyst away from the hydrogel post-injection would slow down the dynamic exchange of hydrazone crosslinks and thus enhance the hydrogel stability. Therefore evaluation was performed to monitor the diffusion of 2, which was incorporated in the hydrogel at either about 25 mM or about 50 mM initial concentration, into the buffer solution after injection by monitoring its absorption at about 281 nm. After about 50 μL hydrogel was injected and immersed in about 1 mL PBS, about 60% of 2 diffused out of the hydrogel within about 1 h, and less than about 1% remained inside the gel after about 8 h (FIG. 5a). […]
# (§1) HA hydrogels containing 0, about 25, and about 50 mM of catalyst 2 were prepared as described in the previous section. […] Catalyst diffusion was quantified using UV measurement by monitoring absorption at about 281 nm. HA erosion was quantified by uronic acid assay according to reported procedures.
# [3] = Ejection of hydrogel through 28-gauge syringe needle (injectability); format: physicochemical; settings: about 2 wt. % hydrogel with about 25 mM of 2
# Description: (§2) Evaluation was performed on the effect of catalyst 2 incorporated in HA-hydrazone hydrogels on the protection of encapsulated cells during injection. HUVECs were homogeneously encapsulated in about 2 wt. % hydrogels containing about 25 mM of 2 by rapidly mixing the cells suspended in HA solutions with catalyst and transferring to a syringe. Hydrogel was rapidly formed in the syringe and ejected through a 28-gauge syringe needle. A syringe pump was used for all cell injection experiments to ensure consistent flow rate for accurate comparison between all samples.
# [4] = system: HUVECs encapsulated in hydrogel; assay: In vitro cell injection and quantification of viability (LIVE/DEAD); format: cell-based, Human; settings: about 2 wt. % hydrogel with about 25 mM of 2, 28-gauge needle, about 20 min post-injection
# Description: as §2
# After injection, cells encapsulated in the hydrogels were incubated for about 20 min, and cell viability was then analyzed using a LIVE/DEAD staining assay.
# Cell suspension was first mixed with HA-hydrazine stock solutions before further mixing with catalyst and HA-aldehyde stock solutions. All in vitro injection experiments were performed with about 30 μL gel volume containing about 3×10^4 cells. For cell injection, the final mixing stage was performed in the barrel of an about 1 mL insulin syringe fitted with a 28 gauge needle. […] Cell viability was determined using LIVE/DEAD viability/cytotoxicity kit (Invitrogen) at about 20 min post-injection and about 3 d post-injection (n=5). […] Cell numbers were quantified using ImageJ at each time point.
# [5] = Hydrogel erosion study (uronic acid assay); format: physicochemical
# Description: Long-term stability of hydrogel scaffolds is often desired to provide support for cell adhesion and growth after cell injection. Rapid hydrogel erosion is a challenge for many dynamic and injectable hydrogels. It is proposed that rapid passive diffusion of the dissolved small molecule catalyst away from the hydrogel post-injection would slow down the dynamic exchange of hydrazone crosslinks and thus enhance the hydrogel stability. Therefore evaluation was performed to monitor the diffusion of 2, which was incorporated in the hydrogel at either about 25 mM or about 50 mM initial concentration, into the buffer solution after injection by monitoring its absorption at about 281 nm. After about 50 μL hydrogel was injected and immersed in about 1 mL PBS, about 60% of 2 diffused out of the hydrogel within about 1 h, and less than about 1% remained inside the gel after about 8 h (FIG. 5a). To examine whether the rapid diffusion and thus removal of catalyst can increase the long-term stability of the hydrogels, comparison is performed of the erosion rate of hydrogels with different initial concentrations of incorporated catalyst. […] Hydrogels initially containing about 25 mM or about 50 mM of catalyst 2 had erosion rates of about 3.8 and about 4.1% per day respectively, similar to those without a catalyst (FIG. 5b), presumably due to rapid diffusion of 2 out of the hydrogels. In contrast, when diffusion of 2 away from the hydrogel was prevented by immersing the hydrogel into a buffer solution containing about 25 mM of 2, the hydrogel was completely dissolved within about 12 h (FIG. 12). […]
# as §1
# [6] = Kinetic measurements on hydrazone exchange (model reaction, HPLC); settings: for k1, rate of hydrazone formation / k−1, rate of hydrazone cleavage: PBS pH about 7.4, about 37° C.
# Description: 2-(aminomethyl)benzimidazole (1 in FIG. 2) is an efficient catalyst to accelerate hydrazone formation owing to facilitated intramolecular proton transfer in the transition state. The rates for hydrazone formation (k1) and cleavage (k−1) in the presence of 1 were measured using model reactions between hydrazine and aldehyde and modeled for a reversible second-order reaction (FIG. 8), and the equilibrium constant (Keq) was calculated from these rate constants. […] The gelation time of the HA-hydrazone hydrogels was dramatically shortened in the presence of 1. […] In the presence of about 25 mM of 1, gelation occurred in less than about 60 s and reached a final plateau shear modulus of about 800 Pa in about 5 min (FIG. 3b). Increasing the catalyst loading to about 100 mM further shortened the time to reach equilibrium to about 3 min (FIG. 3b). As shown in the frequency sweep experiment (FIG. 3c), stable gels were formed with a plateau storage modulus (G′) of about 1 kPa, which is more than an order of magnitude higher than the loss modulus (G″). […] In contrast, altering the HA polymer composition from about 1 to about 4 wt. % increased the plateau modulus (FIG. 3c). […] The rate of stress relaxation under constant strain was quantified by the time for the initially measured stress to relax to half of its original value, τ1/2. […] Accelerated hydrazone exchange by an incorporated catalyst also allowed these hydrogels to be readily remolded macroscopically (FIG. 9), facilitating their injection and re-processing. […] Therefore, the design provides a strategy to tune the modulus and rate of stress relaxation, two important mechanical properties for dynamic hydrogel materials, independently and continuously by polymer concentration and catalyst concentration, respectively.
# The equilibrium constant (Keq) and rate constants for hydrazone formation (k1) and cleavage (k−1) between aldehyde S1 and hydrazine S3 as model compounds with different concentrations of catalyst 1 were measured by HPLC. S3 was synthesized by coupling N-(2-aminoethyl)-4-amino-1,8-naphthalimide with hydrazine using carbodiimide chemistry. About 2 mM stock solutions of hydrazine and aldehyde were prepared in a PBS buffer (1×, pH of about 7.4). An about 250 mM stock solution of catalyst 1 was prepared in PBS as described in the previous sections.
# For the reactions performed in the absence of catalyst, about 10 μL of hydrazine and about 10 μL of aldehyde stock solutions were added to about 980 μL PBS buffer (1×, pH of about 7.4). For the reactions performed in the presence of catalyst 1, the appropriate amount of catalyst 1, hydrazine, and aldehyde were sequentially added to PBS buffer (1×, pH of about 7.4) from their stock solutions, maintaining the same concentrations for hydrazine and aldehyde as those without a catalyst. The reactions were performed at about 37° C. in a water bath and followed using HPLC with detection at about 420 nm absorption (HPLC conditions: XBridge 10 μm C18 column; about 40% acetonitrile in PBS buffer (pH of about 7) isocratic elution in about 7 min at a flow rate of about 0.34 mL/min. The concentrations and conversions were calculated from the integrals of the HPLC signals. The kinetic data of hydrazone formation were fitted to a kinetic model for 2nd order reactions using Matlab (FIG. 8).
# Conditions: about 137 mM NaCl, about 2.7 mM KCl, about 12 mM phosphate, pH of about 7.4 buffer, about 37° C.
# [7] = Rheological tests of HA-hydrazone hydrogels (time sweep, frequency sweep, stress relaxation); format: physicochemical; settings: for τ1/2, time for stress to relax to half of its original value: about 10% strain
# Description: HA-hydrazine and HA-aldehyde were first solubilized in PBS (1×, pH of about 7.4) at 5 wt. % respectively. Catalyst 1 and 2 were dissolved in PBS (1×, pH of about 7.4) and adjusted pH to about 7.4 at a stock concentration of about 250 mM. HA hydrogels were prepared by mixing HA-hydrazine, catalyst, and HA-aldehyde stock solutions successively at hydrazine to aldehyde (molar) ratio of about 1:1. The volumes of stock solutions were adjusted to make gels with different formulations.
# Rheological characterization was performed on a stress-controlled rheometer (AR-G2, TA instrument) using a 20 mm cone plate. About 45 μL of a sample was loaded immediately onto the rheometer after mixing to gel in situ on the rheometer and a humidity chamber was secured in place to prevent dehydration. All the tests were performed at about 37° C. Time sweeps were performed at about 1 Hz at about 1% constant strain. Frequency sweeps were performed from about 0.1 to about 10 Hz at about 1% constant strain. Stress relaxation experiments were performed at about 10% strain.
# [8] = Compression test, remoldability of hydrogels; format: physicochemical; settings: hydrogel containing about 100 mM of 1
# Description: FIG. 9. Compression test showing remoldability of HA-hydrazone hydrogels was improved with the addition of a catalyst.
# [9] = about 2 wt. % HA hydrogel, about 25 mM of 1
compound,measurement,setting,value
NCc1nc2ccccc2n1CCCS(=O)(=O)O [catalyst 2],HUVEC cell death,"[1]; about 5 mM, after about 3 days",negligible cell death
same,cells remaining viable,"[1]; about 25 mM, about 24 h exposure",about 85%
same,fraction of catalyst remaining inside the gel,[2]; after about 8 h,less than 1%
same,fraction of catalyst diffused out of the hydrogel,"[2]; within about 1 h, about 25 or 50 mM initial",about 60%
same,injectability through 28-gauge needle,[3],readily ejected through the thin needle without clogging
same,cell viability after injection,[4],about 87%
same,time to complete dissolution of hydrogel,[5]; hydrogel immersed in buffer containing about 25 mM of 2 (diffusion prevented),≤ 12 h
same,erosion rate,[5]; hydrogel initially containing about 25 mM of catalyst 2,about 3.8 % per day
same,erosion rate,[5]; hydrogel initially containing about 50 mM of catalyst 2,about 4.1 % per day
"NCc1nc2ccccc2[nH]1 [catalyst 1, 2-(aminomethyl)benzimidazole]",HUVEC cell death,"[1]; about 25 mM, within several hours",Significant cell death
same,"k1, rate of hydrazone formation",[6]; 25 mM of 1,127 M⁻¹ s⁻¹
same,"k−1, rate of hydrazone cleavage",[6]; 25 mM of 1,0.00103 s⁻¹
same,"k1, rate of hydrazone formation",[6]; 50 mM of 1,250 M⁻¹ s⁻¹
same,"k−1, rate of hydrazone cleavage",[6]; 50 mM of 1,0.00203 s⁻¹
same,"k1, rate of hydrazone formation",[6]; 100 mM of 1,495 M⁻¹ s⁻¹
same,"k−1, rate of hydrazone cleavage",[6]; 100 mM of 1,0.00401 s⁻¹
same,enhancement of k1,[6]; about 25 mM of 1,about 24 fold
same,enhancement of k−1,[6]; about 25 mM of 1,about 24 fold
same,enhancement of k1,[6]; about 50 mM of 1,about 47 fold
same,enhancement of k−1,[6]; about 50 mM of 1,about 47 fold
same,enhancement of k1,[6]; about 100 mM of 1,about 94 fold
same,enhancement of k−1,[6]; about 100 mM of 1,about 94 fold
same,"τ1/2, time for stress to relax to half of its original value",[7]; about 25 mM of 1,about 10 min
same,"τ1/2, time for stress to relax to half of its original value",[7]; about 100 mM of 1,about 3 min
same,final plateau shear modulus,[7]; [9],about 800 Pa
same,time to reach final plateau shear modulus,[7]; [9],about 5 min
same,gelation time,"[7]; about 2 wt. % HA hydrogel, about 25 mM of 1, about 37° C.",less than 60 s
same,time to reach equilibrium (gelation),"[7]; about 2 wt. % HA hydrogel, about 100 mM of 1",about 3 min
same,remoldability after pressing from about 2.4 mm to about 0.6 mm for about 5 min,[8],adopted the height of the mold
